Data: patent US20160257986A1, “Bacterial Diagnosis” (SRI INTERNATIONAL, priority 2013, published 2016)

How the values were obtained:
Assay type in all cases: cell-based
[1] = tested on: P. aeruginosa (ATCC 27853); assay: MIC of ciprofloxacin against P. aeruginosa; conditions: Pseudomonas aeruginosa, ATCC27853
[2] = tested on: P. aeruginosa (ATCC 27853); assay: Simultaneous antibiotic susceptibility (DHR 123) and species identification (anti-P. aeruginosa antibody) by flow cytometry; conditions: dihydrorhodamine 123 5 μM; 3 hour and 4 hour timepoints
Method: Cultures of P. aeruginosa (ATCC 27853) were inoculated in 3 ml Mueller-Hinton broth (MHB) with an OD600 of 0.06. After 2 hours at 37 C, the cultures were at OD600 of 0.150. At time =0 hours, a test antibiotic (ciprofloxacin) or vehicle (DMSO) was added to each culture along with dihydrorhodamine 123 at 5 μM final concentration. At 3 hour and 4 hour timepoints,1 mL of the P. aeruginosa cells were centrifuged and resuspended in FACS buffer with a primary anti-Pseudomonas antibody (rabbit polyclonal Anti-Pseudomonas antibody (ab68538, abcam, Cambridge, Mass.)), and incubated for 15 minutes. The tubes were then centrifuged and resuspended in FACS buffer with a secondary antibody (goat anti-rabbit labeled with Cy7 dye) for another 15 minutes. The samples were then run directly on a FACScaliber flow cytometer for analysis.

E. coli (ATCC 25922) = assay: MIC of norfloxacin against E. coli; conditions: Escherichia coli, ATCC25922

## O=C(O)c1cn(C2CC2)c2cc(N3CCNCC3)c(F)cc2c1=O [ciprofloxacin]
[1]
  MIC: 0.25 µg/mL
[2]
  response of DHR 123 labeling to antibiotic: dose-dependent response

## CCn1cc(C(=O)O)c(=O)c2cc(F)c(N3CCNCC3)cc21 [norfloxacin]
E. coli (ATCC 25922)
  MIC: 0.064 µg/mL
